Test results: patent publication US7977322B2 (Vertex Pharmaceuticals Incorporated, priority 2004, dated 2011)

Target: T1, ΔF508-CFTR (Homo sapiens, UniProt P13569, DEL508-508)
T1 construct: expressed in transfected cells
Test: Membrane potential optical (FRET/VIPR) assay, identification of correction compounds
Type: cell-based
Details: Table 3, assay not given; for Emax: read-out: % Activity / % Efficacy (relative efficacy)
Summary of the method: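 NIH3T3 mouse fibroblasts stably expressing ΔF508-CFTR were exposed to compound for 16 h at 37° C in serum-free medium, then loaded with DiSBAC2(3)/CC2-DMPE. After addition of 10 μM forskolin plus 20 μM genistein in Cl⁻-free gluconate bath (pH 7.4), depolarization from Cl⁻ efflux was read by FRET (VIPR II).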

T1 sequence (P13569 with tags, fused parts or gaps DEL508-508): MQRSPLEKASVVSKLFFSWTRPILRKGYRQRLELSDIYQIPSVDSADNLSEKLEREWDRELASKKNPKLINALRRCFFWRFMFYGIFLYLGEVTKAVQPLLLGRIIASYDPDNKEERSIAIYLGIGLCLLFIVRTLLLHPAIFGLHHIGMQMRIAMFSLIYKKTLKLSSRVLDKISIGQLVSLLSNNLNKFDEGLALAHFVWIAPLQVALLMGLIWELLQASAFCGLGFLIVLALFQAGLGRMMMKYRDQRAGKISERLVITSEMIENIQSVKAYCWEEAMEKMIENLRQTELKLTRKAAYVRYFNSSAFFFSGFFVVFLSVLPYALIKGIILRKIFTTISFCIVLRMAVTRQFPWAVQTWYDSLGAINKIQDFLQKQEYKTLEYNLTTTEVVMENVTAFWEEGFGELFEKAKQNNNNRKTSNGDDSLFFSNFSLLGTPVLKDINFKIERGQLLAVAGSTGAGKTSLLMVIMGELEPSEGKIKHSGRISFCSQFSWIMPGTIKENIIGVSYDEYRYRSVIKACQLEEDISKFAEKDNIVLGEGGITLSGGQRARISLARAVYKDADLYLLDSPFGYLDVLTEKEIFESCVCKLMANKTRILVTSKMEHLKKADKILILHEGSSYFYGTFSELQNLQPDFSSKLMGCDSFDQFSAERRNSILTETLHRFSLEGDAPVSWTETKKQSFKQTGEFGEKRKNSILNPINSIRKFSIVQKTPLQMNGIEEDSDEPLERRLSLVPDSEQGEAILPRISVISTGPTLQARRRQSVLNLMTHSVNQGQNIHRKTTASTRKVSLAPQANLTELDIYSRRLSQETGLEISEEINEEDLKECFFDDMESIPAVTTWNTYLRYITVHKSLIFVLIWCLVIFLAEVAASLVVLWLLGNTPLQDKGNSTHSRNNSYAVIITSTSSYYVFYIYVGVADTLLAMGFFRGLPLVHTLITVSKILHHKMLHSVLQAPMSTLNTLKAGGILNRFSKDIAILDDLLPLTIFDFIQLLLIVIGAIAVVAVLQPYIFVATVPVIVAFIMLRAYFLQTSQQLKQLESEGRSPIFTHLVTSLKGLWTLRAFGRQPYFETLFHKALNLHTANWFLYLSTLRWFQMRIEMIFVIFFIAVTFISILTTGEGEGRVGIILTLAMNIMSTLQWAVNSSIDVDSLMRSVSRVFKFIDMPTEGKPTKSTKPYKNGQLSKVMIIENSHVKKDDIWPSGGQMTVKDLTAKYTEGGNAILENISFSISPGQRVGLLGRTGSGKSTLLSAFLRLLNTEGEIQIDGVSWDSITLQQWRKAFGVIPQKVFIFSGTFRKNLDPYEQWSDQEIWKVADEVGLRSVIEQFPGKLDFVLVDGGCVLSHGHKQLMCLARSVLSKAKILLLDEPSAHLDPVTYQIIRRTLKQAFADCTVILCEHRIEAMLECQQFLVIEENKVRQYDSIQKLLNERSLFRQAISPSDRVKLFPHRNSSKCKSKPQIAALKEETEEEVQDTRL

Structure (SMILES)	EC50 [µM]	Emax [%]
CN(C)C(c1ccccc1)c1cnc(NC(=O)C2(c3ccc4c(c3)OCO4)CC2)s1 (centres unmarked) [Example 356]	10 to 25	> 100
CCN(CC)C(c1cccc(OC)c1)c1cnc(NC(=O)C2(c3ccc4c(c3)OCO4)CC2)s1 (centres unmarked) [Example 357]	< 10	> 100
COCC1CCCN1C(c1cnc(NC(=O)C2(c3ccc4c(c3)OCO4)CC2)s1)c1ccccc1OC (centres unmarked) [Example 358]	10 to 25	> 100
O=C(Nc1ncc(C(c2ccccc2)N2CCCC2)s1)C1(c2ccc3c(c2)OCO3)CC1 (centres unmarked) [Example 359]	< 10	> 100
COc1cccc(C(c2csc(NC(=O)C3(c4ccc5c(c4)OCO5)CC3)n2)N2CCC(O)CC2)c1 (centres unmarked) [Example 360]	10 to 25	> 100
COc1ccc(C(c2cnc(NC(=O)C3(c4ccc5c(c4)OCO5)CC3)s2)N2CCCCC2)cc1 (centres unmarked) [Example 361]	< 10	> 100
COc1ccc(C(c2cnc(NC(=O)C3(c4ccc5c(c4)OCO5)CC3)s2)N2CCCC2)cc1 (centres unmarked) [Example 362]	10 to 25	> 100
COc1ccccc1C(c1cnc(NC(=O)C2(c3ccc4c(c3)OCO4)CC2)s1)N(C)C (centres unmarked) [Example 364]	10 to 25	> 100
CCN(CC)C(c1cnc(NC(=O)C2(c3ccc4c(c3)OCO4)CC2)s1)c1ccccc1OC (centres unmarked) [Example 365]	< 10	> 100
COc1cccc(C(c2cnc(NC(=O)C3(c4ccc5c(c4)OCO5)CC3)s2)N(C)C)c1 (centres unmarked) [Example 366]	10 to 25	> 100
COc1cccc(C(c2cnc(NC(=O)C3(c4ccc5c(c4)OCO5)CC3)s2)N2CC[C@@H](O)C2)c1 (some centres unmarked) [Example 367]	< 10	> 100
O=C(Nc1ncc(C(c2ccccc2)N2CC[C@@H](O)C2)s1)C1(c2ccc3c(c2)OCO3)CC1 (some centres unmarked) [Example 368]	10 to 25	> 100
O=C(Nc1ncc(C(c2ccccc2)N2CCOCC2)s1)C1(c2ccc3c(c2)OCO3)CC1 (centres unmarked) [Example 369]	< 10	> 100
COc1cccc(C(c2cnc(NC(=O)C3(c4ccc5c(c4)OCO5)CC3)s2)N2CCC[C@@H]2C(N)=O)c1 (some centres unmarked) [Example 370]	< 10	> 100
O=C(Nc1ncc(C(c2ccccc2)N2CCCCC2)s1)C1(c2ccc3c(c2)OCO3)CC1 (centres unmarked) [Example 371]	< 10	> 100
CCN(CC)C(c1ccccc1)c1cnc(NC(=O)C2(c3ccc4c(c3)OCO4)CC2)s1 (centres unmarked) [Example 372]	< 10	> 100
COc1cccc(C(c2cnc(NC(=O)C3(c4ccc5c(c4)OCO5)CC3)s2)N2CCCC2)c1 (centres unmarked) [Example 373]	< 10	> 100
COc1cccc(C(c2cnc(NC(=O)C3(c4ccc5c(c4)OCO5)CC3)s2)N2CCOCC2)c1 (centres unmarked) [Example 374]	< 10	> 100
COCC1CCCN1C(c1ccc(S(C)(=O)=O)cc1)c1cnc(NC(=O)C2(c3ccc4c(c3)OCO4)CC2)s1 (centres unmarked) [Example 375]	10 to 25	25 to 100
CCN(CC)C(c1ccc(S(C)(=O)=O)cc1)c1cnc(NC(=O)C2(c3ccc4c(c3)OCO4)CC2)s1 (centres unmarked) [Example 376]	10 to 25	25 to 100
CS(=O)(=O)c1ccc(C(c2cnc(NC(=O)C3(c4ccc5c(c4)OCO5)CC3)s2)N2CCC[C@H]2C(N)=O)cc1 (some centres unmarked) [Example 377]	10 to 25	25 to 100
CS(=O)(=O)c1ccc(C(c2cnc(NC(=O)C3(c4ccc5c(c4)OCO5)CC3)s2)N2CC[C@@H](O)C2)cc1 (some centres unmarked) [Example 378]	10 to 25	25 to 100
COC[C@@H]1CCCN1C(c1ccc(S(C)(=O)=O)cc1)c1cnc(NC(=O)C2(c3ccc4c(c3)OCO4)CC2)s1 (some centres unmarked) [Example 379]	10 to 25	25 to 100

Structure (SMILES)	EC50 [µM]	Emax [%]
CS(=O)(=O)c1ccc(C(c2cnc(NC(=O)C3(c4ccc5c(c4)OCO5)CC3)s2)N2CCC(O)CC2)cc1 (centres unmarked) [Example 380]	10 to 25	25 to 100
CN(C)C(c1ccc(S(C)(=O)=O)cc1)c1cnc(NC(=O)C2(c3ccc4c(c3)OCO4)CC2)s1 (centres unmarked) [Example 381]	10 to 25	25 to 100
CS(=O)(=O)c1ccc(C(c2cnc(NC(=O)C3(c4ccc5c(c4)OCO5)CC3)s2)N2CCOCC2)cc1 (centres unmarked) [Example 382]	10 to 25	> 100
CC(C)(C)C(c1cnc(NC(=O)C2(c3ccc4c(c3)OCO4)CC2)s1)N1CCCCC1 (centres unmarked) [Example 383]	10 to 25	> 100
CC(C)(C)C(c1cnc(NC(=O)C2(c3ccc4c(c3)OCO4)CC2)s1)N1CCC[C@H]1C(N)=O (some centres unmarked) [Example 384]	10 to 25	> 100
CS(=O)(=O)c1ccc(C(c2cnc(NC(=O)C3(c4ccc5c(c4)OCO5)CC3)s2)N2CCCC2)cc1 (centres unmarked) [Example 385]	< 10	> 100
C/C=C/c1cnc(NC(=O)C2(c3ccc4c(c3)OCO4)CC2)s1 [Example 386]	10 to 25	> 100
COC[C@@H]1CCCN1C(c1cnc(NC(=O)C2(c3ccc4c(c3)OCO4)CC2)s1)C(C)(C)C (some centres unmarked) [Example 387]	10 to 25	> 100
CS(=O)(=O)c1ccc(C(c2cnc(NC(=O)C3(c4ccc5c(c4)OCO5)CC3)s2)N2CCCCC2)cc1 (centres unmarked) [Example 388]	< 10	> 100
COCC1CCCN1C(c1cnc(NC(=O)C2(c3ccc4c(c3)OCO4)CC2)s1)C(C)(C)C (centres unmarked) [Example 389]	10 to 25	> 100
CC(C)(C)C(c1cnc(NC(=O)C2(c3ccc4c(c3)OCO4)CC2)s1)N1CC[C@@H](O)C1 (some centres unmarked) [Example 390]	10 to 25	> 100
CC(C)(C)C(c1cnc(NC(=O)C2(c3ccc4c(c3)OCO4)CC2)s1)N1CCCC1 (centres unmarked) [Example 391]	10 to 25	> 100
CC(C)(C)C(c1cnc(NC(=O)C2(c3ccc4c(c3)OCO4)CC2)s1)N1CCC(O)CC1 (centres unmarked) [Example 392]	10 to 25	> 100
CCN(CC)C(c1cnc(NC(=O)C2(c3ccc4c(c3)OCO4)CC2)s1)C(C)(C)C (centres unmarked) [Example 393]	10 to 25	> 100
CC(C)(C)C(c1cnc(NC(=O)C2(c3ccc4c(c3)OCO4)CC2)s1)N1CCOCC1 (centres unmarked) [Example 394]	< 10	> 100
CN(C)C(c1cnc(NC(=O)C2(c3ccc4c(c3)OCO4)CC2)s1)C(C)(C)C (centres unmarked) [Example 395]	10 to 25	> 100
CCC(c1cnc(NC(=O)C2(c3ccc4c(c3)OCO4)CC2)s1)N1CCC(O)CC1 (centres unmarked) [Example 396]	10 to 25	25 to 100
CCC(c1cnc(NC(=O)C2(c3ccc4c(c3)OCO4)CC2)s1)N1CCCC1 (centres unmarked) [Example 397]	10 to 25	25 to 100
CCC(c1cnc(NC(=O)C2(c3ccc4c(c3)OCO4)CC2)s1)N1CCOCC1 (centres unmarked) [Example 398]	10 to 25	25 to 100
COc1ccccc1C(c1cnc(NC(=O)C2(c3ccc4c(c3)OCO4)CC2)s1)N1CCOCC1 (centres unmarked) [Example 399]	< 10	> 100
COc1ccc(C(c2cnc(NC(=O)C3(c4ccc5c(c4)OCO5)CC3)s2)N2CCOCC2)cc1 (centres unmarked) [Example 400]	< 10	> 100
CCC(c1cnc(NC(=O)C2(c3ccc4c(c3)OCO4)CC2)s1)N1CCC[C@@H]1COC (some centres unmarked) [Example 401]	10 to 25	> 100
CCC(c1cnc(NC(=O)C2(c3ccc4c(c3)OCO4)CC2)s1)N1CC[C@@H](O)C1 (some centres unmarked) [Example 402]	10 to 25	> 100
